Results: ChEMBL document CHEMBL5352486, “Design, synthesis, in vitro - In vivo biological evaluation of novel thiazolopyrimidine compounds as antileishmanial agent with PTR1 inhibition” (Eur J Med Chem, 2023)
Calls of active or inactive are those of the source. The calls are words filed in the database; no cut-off is given here.

How the values were obtained:
Conditions in all cases: time 21.0 day
[1] = tested on: Leishmania infantum; assay: Antileishmanial activity against Leishmania infantum infected in BALB/c mouse model of cutaneous leishmaniasis assessed as footpad lesion development at 50 mg/kg/day, ID administered for 21 days and measured after 2 weeks by Giemsa staining based analysis (reference value: 1.61 +/- 0.03); assay type: functional
[2] = tested on: Leishmania infantum; assay: Antileishmanial activity against Leishmania infantum infected in BALB/c mouse model of cutaneous leishmaniasis assessed as footpad lesion development at 50 mg/kg/day, ID administered for 21 days and measured after 4 weeks by Giemsa staining based analysis (reference value: 1.90 +/- 0.03); assay type: functional
[3] = tested on: Leishmania infantum; assay: Antileishmanial activity against Leishmania infantum infected in BALB/c mouse model of cutaneous leishmaniasis assessed as footpad lesion development at 50 mg/kg/day, ID administered for 21 days and measured after 6 weeks by Giemsa staining based analysis (reference value: 2.40 +/- 0.03); assay type: functional
[4] = tested on: Leishmania infantum; assay: Antileishmanial activity against Leishmania infantum infected in BALB/c mouse model of cutaneous leishmaniasis assessed as footpad lesion development at 50 mg/kg/day, ID administered for 21 days and measured after 8 weeks by Giemsa staining based analysis (reference value: 3.13 +/- 0.03); assay type: functional
[5] = tested on: Leishmania infantum; assay: Antileishmanial activity against Leishmania infantum infected in BALB/c mouse model of cutaneous leishmaniasis assessed as footpad lesion development at 50 mg/kg/day, ID administered for 21 days and measured after 10 weeks by Giemsa staining based analysis (reference value: 3.40 +/- 0.03); assay type: functional
[6] = tested on: Leishmania infantum; assay: Antileishmanial activity against Leishmania infantum infected in BALB/c mouse model of cutaneous leishmaniasis assessed as footpad lesion development at 50 mg/kg/day, ID administered for 21 days and measured after 12 weeks by Giemsa staining based analysis (reference value: 3.61 +/- 0.03); assay type: functional
[7] = tested on: Leishmania infantum; assay: Antileishmanial activity against Leishmania infantum infected in BALB/c mouse model of cutaneous leishmaniasis assessed as footpad lesion development at 50 mg/kg/day, ID administered for 21 days and measured after 14 weeks by Giemsa staining based analysis (reference value: 3.88 +/- 0.03); assay type: functional
[8] = tested on: Leishmania infantum; assay: Antileishmanial activity against Leishmania infantum infected in BALB/c mouse model of cutaneous leishmaniasis assessed as footpad lesion development at 50 mg/kg/day, ID administered for 21 days and measured after 16 weeks by Giemsa staining based analysis (reference value: 4.20 +/- 0.03); assay type: functional
[9] = tested on: Leishmania infantum; assay: Antileishmanial activity against Leishmania infantum infected in BALB/c mouse model of cutaneous leishmaniasis assessed as footpad lesion development at 50 mg/kg/day, ID administered for 21 days and measured after 18 weeks by Giemsa staining based analysis (reference value: 4.42 +/- 0.03); assay type: functional
[10] = tested on: Leishmania infantum; assay: Antileishmanial activity against Leishmania infantum infected in BALB/c mouse model of cutaneous leishmaniasis assessed as footpad lesion development at 50 mg/kg/day, ID administered for 21 days and measured after 20 weeks by Giemsa staining based analysis (reference value: 4.54 +/- 0.04); assay type: functional
[11] = tested on: Leishmania infantum; assay: Antileishmanial activity against Leishmania infantum infected in BALB/c mouse model of cutaneous leishmaniasis assessed as footpad lesion development at 50 mg/kg/day, ID administered for 21 days and measured after 22 weeks by Giemsa staining based analysis (reference value: 4.71 +/- 0.04); assay type: functional
[12] = tested on: Leishmania infantum; assay: Antileishmanial activity against Leishmania infantum infected in BALB/c mouse model of cutaneous leishmaniasis assessed as footpad lesion development at 50 mg/kg/day, ID administered for 21 days and measured after 24 weeks by Giemsa staining based analysis (reference value: 4.90 +/- 0.02); assay type: functional
[13] = tested on: Leishmania infantum; assay: Antileishmanial activity against Leishmania infantum infected in BALB/c mouse model of cutaneous leishmaniasis assessed as footpad lesion development at 50 mg/kg/day, ID administered for 21 days and measured after 26 weeks by Giemsa staining based analysis (reference value: 4.91 +/- 0.01); assay type: functional
[14] = tested on: Leishmania infantum; assay: Antileishmanial activity against Leishmania infantum infected in BALB/c mouse model of cutaneous leishmaniasis assessed as footpad lesion development at 50 mg/kg/day, ID administered for 21 days and measured after 28 weeks by Giemsa staining based analysis (reference value: 4.92 +/- 0.01); assay type: functional
[15] = tested on: Leishmania infantum; assay: Antileishmanial activity against Leishmania infantum infected in BALB/c mouse model of cutaneous leishmaniasis assessed as footpad lesion development at 50 mg/kg/day, ID administered for 21 days and measured after 30 weeks by Giemsa staining based analysis (reference value: 4.92 +/- 0.01); assay type: functional
[16] = tested on: Leishmania infantum; assay: Antileishmanial activity against Leishmania infantum infected in BALB/c mouse model of cutaneous leishmaniasis assessed as footpad lesion development at 50 mg/kg/day, ID administered for 21 days and measured after 32 weeks by Giemsa staining based analysis (reference value: 4.91 +/- 0.01); assay type: functional
[17] = tested on: Leishmania infantum; assay: Antileishmanial activity against Leishmania infantum infected in BALB/c mouse model of visceral leishmaniasis assessed as footpad lesion development at 50 mg/kg/day, IM administered for 21 days and measured after 1 week by Giemsa staining based analysis (reference value: 30.43 +/- 0.60); assay type: functional
[18] = tested on: Leishmania infantum; assay: Antileishmanial activity against Leishmania infantum infected in BALB/c mouse model of visceral leishmaniasis assessed as footpad lesion development at 50 mg/kg/day, IM administered for 21 days and measured after 2 weeks by Giemsa staining based analysis (reference value: 29.73 +/- 0.63); assay type: functional
[19] = tested on: Leishmania infantum; assay: Antileishmanial activity against Leishmania infantum infected in BALB/c mouse model of visceral leishmaniasis assessed as footpad lesion development at 50 mg/kg/day, IM administered for 21 days and measured after 3 weeks by Giemsa staining based analysis (reference value: 28.94 +/- 0.59); assay type: functional
[20] = tested on: Leishmania infantum; assay: Antileishmanial activity against Leishmania infantum infected in BALB/c mouse model of visceral leishmaniasis assessed as footpad lesion development at 50 mg/kg/day, IM administered for 21 days and measured after 4 weeks by Giemsa staining based analysis (reference value: 28.01 +/- 0.65); assay type: functional
[21] = tested on: Leishmania infantum; assay: Antileishmanial activity against Leishmania infantum infected in BALB/c mouse model of visceral leishmaniasis assessed as footpad lesion development at 50 mg/kg/day, IM administered for 21 days and measured after 5 weeks by Giemsa staining based analysis (reference value: 27.04 +/- 0.65); assay type: functional
[22] = tested on: Leishmania infantum; assay: Antileishmanial activity against Leishmania infantum infected in BALB/c mouse model of visceral leishmaniasis assessed as footpad lesion development at 50 mg/kg/day, IM administered for 21 days and measured after 6 weeks by Giemsa staining based analysis (reference value: 25.81 +/- 0.84); assay type: functional
[23] = tested on: Leishmania infantum; assay: Antileishmanial activity against Leishmania infantum infected in BALB/c mouse model of visceral leishmaniasis assessed as footpad lesion development at 50 mg/kg/day, IM administered for 21 days and measured after 7 weeks by Giemsa staining based analysis (reference value: 24.85 +/- 0.88); assay type: functional
[24] = tested on: Leishmania infantum; assay: Antileishmanial activity against Leishmania infantum infected in BALB/c mouse model of visceral leishmaniasis assessed as footpad lesion development at 50 mg/kg/day, IM administered for 21 days and measured after 8 weeks by Giemsa staining based analysis (reference value: 23.84 +/- 0.93); assay type: functional
[25] = tested on: Leishmania infantum; assay: Antileishmanial activity against Leishmania infantum infected in BALB/c mouse model of visceral leishmaniasis assessed as footpad lesion development at 50 mg/kg/day, IM administered for 21 days and measured after 9 weeks by Giemsa staining based analysis (reference value: 22.75 +/- 0.71); assay type: functional
[26] = tested on: Leishmania infantum; assay: Antileishmanial activity against Leishmania infantum infected in BALB/c mouse model of visceral leishmaniasis assessed as footpad lesion development at 50 mg/kg/day, IM administered for 21 days and measured after 10 weeks by Giemsa staining based analysis (reference value: 21.58 +/- 0.74); assay type: functional
[27] = tested on: Leishmania infantum; assay: Antileishmanial activity against Leishmania infantum infected in BALB/c mouse model of visceral leishmaniasis assessed as footpad lesion development at 50 mg/kg/day, IM administered for 21 days and measured after 11 weeks by Giemsa staining based analysis (reference value: 20.71 +/- 0.48); assay type: functional
[28] = tested on: Leishmania infantum; assay: Antileishmanial activity against Leishmania infantum infected in BALB/c mouse model of visceral leishmaniasis assessed as parasite growth in liver at 50 mg/kg/day, IM administered for 21 days; assay type: functional, organism-based
[29] = tested on: Leishmania infantum; assay: Antileishmanial activity against Leishmania infantum infected in BALB/c mouse model of visceral leishmaniasis assessed as parasite growth in spleen at 50 mg/kg/day, IM administered for 21 days; assay type: functional, organism-based
[30] = tested on: Leishmania infantum; assay: Antileishmanial activity against Leishmania infantum infected in BALB/c mouse model of cutaneous leishmaniasis assessed as parasite growth in liver at 50 mg/kg/day, ID administered for 21 days; assay type: functional, organism-based
[31] = tested on: Leishmania infantum; assay: Antileishmanial activity against Leishmania infantum infected in BALB/c mouse model of cutaneous leishmaniasis assessed as parasite growth in spleen at 50 mg/kg/day, ID administered for 21 days; assay type: functional, organism-based
[32] = tested on: Leishmania infantum; assay: Antileishmanial activity against Leishmania infantum infected in BALB/c mouse model of cutaneous leishmaniasis assessed as parasite growth in foodpad at 50 mg/kg/day, ID administered for 21 days; assay type: functional, organism-based

## Meglumine antimoniate
[1]
  Activity: 1.56
[2]
  Activity: 1.87
[3]
  Activity: 2.39
[4]
  Activity: 3.09
[5]
  Activity: 3.4
[6]
  Activity: 3.61
[7]
  Activity: 3.84
[8]
  Activity: 4.2
[9]
  Activity: 4.42
[10]
  Activity: 4.53
[11]
  Activity: 4.69
[12]
  Activity: 4.9
[13]
  Activity: 4.69
[14]
  Activity: 3.49
[15]
  Activity: 2.16
[16]
  Activity: 1.7
[17]
  Activity: 30.8
[18]
  Activity: 29.4
[19]
  Activity: 28.5
[20]
  Activity: 27.4
[21]
  Activity: 26.3
[22]
  Activity: 25.3
[23]
  Activity: 26.7
[24]
  Activity: 27.7
[25]
  Activity: 28.7
[26]
  Activity: 29.3
[27]
  Activity: 30.3
[28]
  Activity: Active
[29]
  Activity: Active
[30]
  Activity: Active
[31]
  Activity: Active
[32]
  Activity: Active
